# Measured values from ChEMBL document CHEMBL1201862, “PubChem BioAssay data set” (2004).
# Calls of active or inactive are those of the source.
# Assays:
# Danio rerio = test: In Vivo Angiogenesis Dose-Response Confirmation. [Related pubchem assays: 732 (Assay preceding this confirmatory assay.)]; assay type: functional, organism-based
# Transthyretin = Transthyretin (Homo sapiens, UniProt P02766); test: Luminescence-based cell-based high throughput dose response assay to identify activators of Transthyretin (TTR) transcription.; assay type: functional
# 14-3-3 protein gamma = 14-3-3 protein gamma (Homo sapiens, UniProt P61981); test: modulators of 14-3-3 gamma client binding – dose response (AID 711); assay type: functional
# [1] = biological target: Serine/threonine-protein phosphatase (Homo sapiens, UniProt Q9BPW0); test: inhibition of protein phosphatase 5 activity – biochemical, fluorescence, dose response (AID 2395)
# Beta-galactosidase = Beta-galactosidase (Escherichia coli, UniProt Q8VNN2); test: detection-enzyme interference by beta-gal modulators – biochemical, E. coli enzyme, set 3, artefact control for CCR6 antagonist project, dose response (AID 504712); assay type: functional
# [2] = biological target: T1, Microphthalmia-associated transcription factor (Homo sapiens, UniProt O75030); test: reducers of TRPM1 reporter luminescence, concentration series – cell-based, SK-MEL-5, cherry-picked, set 3, MITF inhibitor project, dose response (AID 493073); assay type: functional;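 note: SK-MEL-5 melanoma cells with luciferase driven by the MITF target TRPM1 promoter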
# T1 sequence (O75030 whole entry): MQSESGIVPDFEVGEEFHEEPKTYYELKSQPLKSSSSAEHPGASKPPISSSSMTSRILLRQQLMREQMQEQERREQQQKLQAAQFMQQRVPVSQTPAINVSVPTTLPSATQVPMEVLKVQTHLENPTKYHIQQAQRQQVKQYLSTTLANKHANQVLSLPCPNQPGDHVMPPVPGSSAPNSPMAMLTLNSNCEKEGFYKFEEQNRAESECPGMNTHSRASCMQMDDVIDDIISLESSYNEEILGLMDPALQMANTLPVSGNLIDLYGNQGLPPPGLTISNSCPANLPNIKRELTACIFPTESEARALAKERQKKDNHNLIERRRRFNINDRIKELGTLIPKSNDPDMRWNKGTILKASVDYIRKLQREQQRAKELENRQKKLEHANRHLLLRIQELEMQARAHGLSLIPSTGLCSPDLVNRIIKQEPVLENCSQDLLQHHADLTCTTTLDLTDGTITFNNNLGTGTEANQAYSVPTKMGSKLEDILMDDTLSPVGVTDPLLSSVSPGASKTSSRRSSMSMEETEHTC
# [3] = biological target: Serine/threonine-protein phosphatase PP1-alpha catalytic subunit (Homo sapiens, UniProt P62136); test: inhibition of protein phosphatase 1 activity – biochemical, fluorescence, dose response (AID 2394)
# [4] = biological target: T2, Heat shock factor protein 1 (Mus musculus, UniProt P38532); test: enhancement of HSF1-driven luciferase signal – cell-based, NIH3T3, luminescence, dose retest, confirmation (AID 435004); assay type: functional;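 note: stress induced by proteasome inhibitor MG132 added 30 min after compound; luciferase reporter driven by HSF1 response element in NIH3T3 cells; actives raise luminescence as potentiators of the MG132 stress response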
# T2 sequence (P38532 whole entry): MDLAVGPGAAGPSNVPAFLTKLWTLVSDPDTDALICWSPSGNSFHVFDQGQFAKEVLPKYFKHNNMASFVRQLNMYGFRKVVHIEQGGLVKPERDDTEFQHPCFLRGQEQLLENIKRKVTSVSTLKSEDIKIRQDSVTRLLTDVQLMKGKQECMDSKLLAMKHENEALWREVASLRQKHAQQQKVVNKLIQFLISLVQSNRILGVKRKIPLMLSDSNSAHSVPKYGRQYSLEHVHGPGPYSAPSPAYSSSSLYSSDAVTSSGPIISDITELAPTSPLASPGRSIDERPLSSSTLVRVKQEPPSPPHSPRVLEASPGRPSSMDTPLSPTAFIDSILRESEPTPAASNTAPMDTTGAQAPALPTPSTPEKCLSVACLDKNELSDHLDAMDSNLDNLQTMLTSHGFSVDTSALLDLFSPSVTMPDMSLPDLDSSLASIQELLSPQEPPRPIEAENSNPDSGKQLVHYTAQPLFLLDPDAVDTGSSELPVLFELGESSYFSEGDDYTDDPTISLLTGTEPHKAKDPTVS
# A-375 = test: proliferation inhibition in MITF-low A375 cells – cell-based, cherry-pick samples, set 2, counter-screen for MITF modulator project, dose response (AID 540335); assay type: functional; details: Homo sapiens
# [5] = viability of HCT116 lacking mutant beta-catenin – cell-based, human colon tumor, dose response (AID 1045); assay type: functional;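 note: HCT116 colon tumor cells with beta catenin knocked out; cells exposed to compound for 60 hours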
# [6] = viability of PTEN-deleted HCT116 cells – cell-based, HCT116 PTEN knockout, dose response (AID 1047); assay type: functional;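 note: HCT116 colon tumor cells with PTEN knocked out; cells exposed to compound for 60 hours before readout; potency for loss of cell viability measured by luminescence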
# [7] = biological target: Peroxisome proliferator-activated receptor gamma/Nuclear receptor corepressor 2 (Homo sapiens, UniProt P37231+Q9Y618); test: Counterscreen for NR2E3 inverse agonists: TR-FRET-based biochemical high throughput dose response assay to identify inverse agonists of the interaction between peroxisome proliferator-activated receptor gamma (PPARg) and nuclear receptor co-repressor 2 (NCOR2).; assay type: functional
# [8] = biological target: Photoreceptor-specific nuclear receptor (Homo sapiens, UniProt Q9Y5X4); test: ligands suppressing NR2E3 nuclear receptor activity – biochemical, TR-FRET, dose response (AID 463256); assay type: functional
# [9] = cytotoxicity toward HCT116 cells – cell-based, CellTiter-Glo luminescence, IC50, dose response (AID 1117332); assay type: functional; details: HCT-116
# [10] = RKO cell viability reduction, dose response, CellTiter-Glo luminescence (AID 1117322); assay type: functional
# [11] = HCT116 cell viability decrease, GSK3B pretreatment – CellTiter-Glo, IC50, dose response (AID 1117339); assay type: functional; details: HCT-116
# [12] = Reduced DLD-1 viability, concentration-response, CellTiter-Glo luminescence (AID 1117352); assay type: functional
# [13] = cytotoxicity toward Colo320 cells – cell-based, CellTiter-Glo luminescence, IC50, dose response (AID 1117334); assay type: functional; details: COLO 320
# [14] = CellTiter-Glo luminescence survival assay, SW480 colon tumor line, concentration-response curve, half-maximal inhibitory concentration (AID 1117338); assay type: functional
# [15] = cytotoxicity toward HT-29 cells – cell-based, CellTiter-Glo luminescence, IC50, dose response (AID 1117330); assay type: functional
# [16] = SNU-C1 cell viability reduction, dose response, CellTiter-Glo luminescence (AID 1117323); assay type: functional, cell-based
# [17] = toxicity to human hepatoma HepG2 cells – cell-based, cherry-picked samples, cytotoxicity control, dose response (AID 1159577); assay type: functional
# [18] = P. falciparum Dd2 growth inhibitors, dose response, SYBR Green, cherry-picked samples (AID 1159567); assay type: functional, cell-based
# Chain of Photoreceptor-specific nuclear receptor (Q9Y5X4 whole entry): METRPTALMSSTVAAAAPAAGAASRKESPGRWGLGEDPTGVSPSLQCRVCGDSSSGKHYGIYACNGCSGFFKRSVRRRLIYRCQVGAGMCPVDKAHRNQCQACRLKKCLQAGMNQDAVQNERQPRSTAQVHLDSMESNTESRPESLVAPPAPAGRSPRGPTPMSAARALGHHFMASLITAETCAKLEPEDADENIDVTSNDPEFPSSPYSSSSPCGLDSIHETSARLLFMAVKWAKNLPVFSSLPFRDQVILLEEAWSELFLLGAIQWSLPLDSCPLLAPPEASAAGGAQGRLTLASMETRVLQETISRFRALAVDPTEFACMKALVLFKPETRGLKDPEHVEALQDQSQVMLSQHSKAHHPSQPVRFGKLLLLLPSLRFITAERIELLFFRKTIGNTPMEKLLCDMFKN
# Chain of 14-3-3 protein gamma (P61981 whole entry): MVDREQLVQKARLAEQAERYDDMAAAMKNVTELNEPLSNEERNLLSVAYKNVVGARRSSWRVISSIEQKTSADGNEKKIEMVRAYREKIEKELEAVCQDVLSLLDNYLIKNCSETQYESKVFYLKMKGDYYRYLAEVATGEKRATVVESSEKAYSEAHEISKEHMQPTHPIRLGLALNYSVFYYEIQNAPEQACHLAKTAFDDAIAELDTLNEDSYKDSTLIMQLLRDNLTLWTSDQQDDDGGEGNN
# Chain of Serine/threonine-protein phosphatase PP1-alpha catalytic subunit (P62136 whole entry): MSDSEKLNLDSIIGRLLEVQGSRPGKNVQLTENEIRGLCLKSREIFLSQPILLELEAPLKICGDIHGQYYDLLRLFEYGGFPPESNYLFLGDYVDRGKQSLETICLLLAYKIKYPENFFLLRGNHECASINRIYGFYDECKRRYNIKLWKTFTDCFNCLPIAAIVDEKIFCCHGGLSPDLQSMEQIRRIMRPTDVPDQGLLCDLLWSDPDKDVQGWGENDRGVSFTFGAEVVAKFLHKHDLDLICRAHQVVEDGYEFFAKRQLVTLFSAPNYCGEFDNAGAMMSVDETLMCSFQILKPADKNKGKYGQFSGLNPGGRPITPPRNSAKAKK
# Chain of Peroxisome proliferator-activated receptor gamma/Nuclear receptor corepressor 2 (P37231 whole entry): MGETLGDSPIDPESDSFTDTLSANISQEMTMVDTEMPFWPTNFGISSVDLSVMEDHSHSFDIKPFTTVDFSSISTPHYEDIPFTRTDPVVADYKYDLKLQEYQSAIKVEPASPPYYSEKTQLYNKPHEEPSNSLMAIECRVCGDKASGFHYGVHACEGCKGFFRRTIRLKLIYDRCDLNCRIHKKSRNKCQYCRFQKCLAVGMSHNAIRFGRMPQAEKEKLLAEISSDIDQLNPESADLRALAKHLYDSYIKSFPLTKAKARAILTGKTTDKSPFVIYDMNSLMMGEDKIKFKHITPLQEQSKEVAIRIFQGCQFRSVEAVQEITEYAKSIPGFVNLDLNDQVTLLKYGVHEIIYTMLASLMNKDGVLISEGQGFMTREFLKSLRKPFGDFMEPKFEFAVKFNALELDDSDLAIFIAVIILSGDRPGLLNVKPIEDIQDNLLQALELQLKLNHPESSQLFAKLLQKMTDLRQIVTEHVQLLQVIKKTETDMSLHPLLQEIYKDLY
# Chain of Peroxisome proliferator-activated receptor gamma/Nuclear receptor corepressor 2 (Q9Y618 whole entry): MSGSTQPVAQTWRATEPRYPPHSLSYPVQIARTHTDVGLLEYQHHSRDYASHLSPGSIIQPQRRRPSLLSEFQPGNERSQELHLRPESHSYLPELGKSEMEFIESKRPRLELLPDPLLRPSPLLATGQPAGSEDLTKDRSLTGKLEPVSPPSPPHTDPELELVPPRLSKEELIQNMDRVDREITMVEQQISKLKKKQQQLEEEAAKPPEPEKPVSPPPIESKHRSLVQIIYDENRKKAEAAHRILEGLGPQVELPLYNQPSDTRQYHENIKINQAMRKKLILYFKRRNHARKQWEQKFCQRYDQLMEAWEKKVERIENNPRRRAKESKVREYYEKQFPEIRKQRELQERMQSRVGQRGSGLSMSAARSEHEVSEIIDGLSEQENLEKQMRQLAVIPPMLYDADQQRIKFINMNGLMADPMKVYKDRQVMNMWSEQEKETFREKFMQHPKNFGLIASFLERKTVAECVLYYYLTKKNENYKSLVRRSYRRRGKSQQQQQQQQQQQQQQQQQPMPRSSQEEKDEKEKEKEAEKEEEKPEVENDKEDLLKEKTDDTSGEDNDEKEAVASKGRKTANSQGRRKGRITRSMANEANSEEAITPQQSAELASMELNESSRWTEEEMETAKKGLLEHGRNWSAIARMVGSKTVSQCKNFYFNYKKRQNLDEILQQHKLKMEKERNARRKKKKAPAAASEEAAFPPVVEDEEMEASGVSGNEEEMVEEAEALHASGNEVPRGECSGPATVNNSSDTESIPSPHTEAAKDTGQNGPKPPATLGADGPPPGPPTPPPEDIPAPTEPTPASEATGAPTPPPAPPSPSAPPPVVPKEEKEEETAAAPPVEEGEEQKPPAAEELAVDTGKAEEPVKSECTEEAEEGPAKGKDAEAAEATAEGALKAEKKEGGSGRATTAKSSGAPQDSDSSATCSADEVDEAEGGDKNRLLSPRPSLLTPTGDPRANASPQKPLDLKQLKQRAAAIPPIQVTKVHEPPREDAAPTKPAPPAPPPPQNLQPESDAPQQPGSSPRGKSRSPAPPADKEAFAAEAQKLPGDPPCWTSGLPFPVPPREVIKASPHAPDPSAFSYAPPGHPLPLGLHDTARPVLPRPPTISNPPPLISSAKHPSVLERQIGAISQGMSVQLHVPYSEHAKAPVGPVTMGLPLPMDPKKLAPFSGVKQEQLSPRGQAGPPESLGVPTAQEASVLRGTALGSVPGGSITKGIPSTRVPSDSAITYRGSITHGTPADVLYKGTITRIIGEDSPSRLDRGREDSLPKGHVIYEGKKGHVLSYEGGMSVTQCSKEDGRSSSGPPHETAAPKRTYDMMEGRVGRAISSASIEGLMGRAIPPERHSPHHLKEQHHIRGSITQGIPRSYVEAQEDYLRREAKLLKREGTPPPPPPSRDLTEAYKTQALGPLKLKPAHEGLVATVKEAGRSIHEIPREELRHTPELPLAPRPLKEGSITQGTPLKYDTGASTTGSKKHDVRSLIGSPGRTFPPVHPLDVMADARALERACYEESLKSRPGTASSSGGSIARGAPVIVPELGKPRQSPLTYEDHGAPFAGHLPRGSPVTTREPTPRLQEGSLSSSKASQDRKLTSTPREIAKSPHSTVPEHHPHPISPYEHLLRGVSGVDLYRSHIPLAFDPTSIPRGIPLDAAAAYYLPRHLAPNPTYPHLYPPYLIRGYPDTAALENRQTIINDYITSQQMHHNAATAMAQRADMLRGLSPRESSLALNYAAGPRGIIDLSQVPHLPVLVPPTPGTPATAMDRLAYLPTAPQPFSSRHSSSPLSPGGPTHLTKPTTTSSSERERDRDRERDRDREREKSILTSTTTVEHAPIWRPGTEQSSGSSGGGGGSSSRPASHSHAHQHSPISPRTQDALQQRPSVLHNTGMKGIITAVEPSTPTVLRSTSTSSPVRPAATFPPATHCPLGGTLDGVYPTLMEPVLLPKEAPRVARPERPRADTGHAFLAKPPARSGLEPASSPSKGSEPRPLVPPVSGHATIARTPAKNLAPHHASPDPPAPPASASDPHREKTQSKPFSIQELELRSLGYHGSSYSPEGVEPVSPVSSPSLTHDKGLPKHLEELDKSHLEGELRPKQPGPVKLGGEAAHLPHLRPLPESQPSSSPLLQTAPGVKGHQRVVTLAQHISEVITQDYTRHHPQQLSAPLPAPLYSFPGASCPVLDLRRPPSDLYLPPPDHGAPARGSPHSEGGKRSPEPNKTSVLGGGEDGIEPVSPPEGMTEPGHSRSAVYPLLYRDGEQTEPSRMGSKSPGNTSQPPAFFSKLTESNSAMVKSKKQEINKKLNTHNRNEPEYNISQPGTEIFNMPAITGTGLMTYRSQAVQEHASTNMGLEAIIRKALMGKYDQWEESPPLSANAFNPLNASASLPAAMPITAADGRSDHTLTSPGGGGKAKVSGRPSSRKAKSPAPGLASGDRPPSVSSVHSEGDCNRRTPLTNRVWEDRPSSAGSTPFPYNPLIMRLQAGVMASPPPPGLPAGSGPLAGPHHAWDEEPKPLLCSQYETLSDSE
# Chain of Serine/threonine-protein phosphatase (Q9BPW0 whole entry): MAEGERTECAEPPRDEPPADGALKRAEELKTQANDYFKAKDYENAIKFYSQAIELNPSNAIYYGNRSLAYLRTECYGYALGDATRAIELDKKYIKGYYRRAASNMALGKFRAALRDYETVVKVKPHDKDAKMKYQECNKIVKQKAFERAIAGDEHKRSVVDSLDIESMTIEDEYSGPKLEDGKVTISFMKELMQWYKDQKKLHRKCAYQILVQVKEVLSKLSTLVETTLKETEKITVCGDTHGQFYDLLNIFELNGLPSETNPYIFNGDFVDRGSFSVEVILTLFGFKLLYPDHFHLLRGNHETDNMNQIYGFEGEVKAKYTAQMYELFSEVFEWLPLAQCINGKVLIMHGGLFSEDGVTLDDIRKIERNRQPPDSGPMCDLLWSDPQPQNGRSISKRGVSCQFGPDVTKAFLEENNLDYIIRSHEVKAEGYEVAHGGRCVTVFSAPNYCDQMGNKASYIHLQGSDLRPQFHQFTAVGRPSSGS
structure (smiles),measurement,setting,value
O=C1Nc2ccc(F)cc2/C1=C1/Nc2ccccc2/C1=N\OCCN1CCNCC1,IC50,Danio rerio,13.1 µM (not active)
Cc1cc(C)n(CC(=O)n2c(C)c(C)c3ccccc32)n1,EC50,Transthyretin,> 167 µM (inactive)
Cc1ccc(-n2c(=O)[nH]cc(C(=O)Nc3ccc4c(c3)OCCO4)c2=O)cc1C,IC50,14-3-3 protein gamma,> 50 µM (not active)
O=C1C(Cl)=C(N2CCN(c3ccccc3[N+](=O)[O-])CC2)C(=O)c2ccccc21,IC50,[1],29.5 µM (not active)
same,IC50,Beta-galactosidase,> 66.6 µM (inactive)
same,AC50,[2],3.59 µM (active)
same,IC50,[3],> 67 µM (not active)
same,EC50,[4],0.734 µM (inconclusive)
same,AC50,A-375,15.6 µM (active)
same,EC50,[5],4.51 µM (active)
same,EC50,[6],5.82 µM (active)
O=C(NCc1ccccn1)c1cccn1-c1ncc(C(F)(F)F)cc1Cl,IC50,[7],9.96 µM (active)
same,IC50,[8],9.98 µM (active)
Cc1c(O)cc2c(c1C)O[C@](C)(CCC[C@H](C)CCC[C@H](C)CCCC(C)C)CC2,IC50,[9],> 20 µM (inactive)
same,IC50,[10],> 20 µM (inactive)
same,IC50,[11],> 20 µM (inactive)
same,IC50,[12],> 20 µM (inactive)
same,IC50,[13],> 20 µM (inactive)
same,IC50,[14],> 20 µM (inactive)
same,IC50,[15],> 20 µM (inactive)
same,IC50,[16],> 20 µM (inactive)
O=C(Nc1ccc2c(c1)OCO2)N1C[C@@H]2N[C@H](C1)[C@@H]2c1ccc(C=Cc2ccccc2)cc1,AC50,[17],11.2 µM (active)
same,AC50,[18],5.46 µM (active)
